Data: paper PMC9037358 (RSC Advances, 2021)

Key:
MDA-MB-231 [1] = assay: MTT cytotoxicity assay; assay type: cell-based; conditions: Homo sapiens, MDA-MB-231, 48 h, read-out: Cytotoxicity IC50 μM ± S.D. MDA-MB-231
MCF-7 = assay: MTT cytotoxicity assay; assay type: cell-based; conditions: Homo sapiens, MCF7, 48 h, read-out: Cytotoxicity IC50 μM ± S.D. MCF-7
[2] = MTT cytotoxicity assay, normal breast cell line; assay type: cell-based, human; conditions: human, MCF 10A normal breast cells
Klebsiella pneumonia = assay: Antimicrobial activity; assay type: cell-based; conditions: 50 μg mL^−1; NA: not active
[3] = tested on: Escherichia coli ATCC 25955; assay: Antimicrobial activity; assay type: cell-based; conditions: 50 μg mL^−1; NA: not active
Proteus vulgaris = assay: Antimicrobial activity; assay type: cell-based; conditions: 24 h, read-out: inhibition ratio% P. vulgaris
[4] = tested on: Staphylococcus aureus NRRL B-767; assay: Antimicrobial activity; assay type: cell-based; conditions: 50 μg mL^−1, NA: not active
Salmonella typhimurium = assay: Antimicrobial activity; assay type: cell-based; conditions: 50 μg mL^−1; NA: not active
K. pneumonia = assay: Anti-biofilm activity; assay type: cell-based; conditions: 50 μg mL^−1
E. coli [5] = assay: Anti-biofilm activity; assay type: cell-based; conditions: 50 μg mL^−1
P. vulgaris = assay: Anti-biofilm activity; assay type: cell-based; conditions: 50 μg mL^−1
S. aureus = assay: Anti-biofilm activity; assay type: cell-based; conditions: 50 μg mL^−1
S. typhimurium = assay: Anti-biofilm activity; assay type: cell-based; conditions: 50 μg mL^−1
E. coli [6] = conditions: cited from earlier work
S. flexenari = conditions: cited from earlier work
MCF 10A = assay: MTT cytotoxicity assay, normal breast cell line; assay type: cell-based, human; conditions: both breast cancer cell lines vs MCF-10A
carbonic anhydrase IX = carbonic anhydrase IX (Homo sapiens, UniProt Q16790); assay: In vitro carbonic anhydrase IX enzyme inhibition; assay type: biochemical
carbonic anhydrase II = carbonic anhydrase II (Homo sapiens, UniProt P00918); assay: In vitro carbonic anhydrase II enzyme inhibition; assay type: biochemical
MDA-MB-231 [7] = assay: Cellular uptake assay; assay type: cell-based, human; conditions: HPLC
MDA-MB-231 [8] = assay: Cell cycle analysis; assay type: cell-based, human; conditions: compared to positive control
MDA-MB-231 [9] = assay: Annexin V-FITC apoptosis assay; assay type: cell-based, human
[10] = tested on: Candida albicans ATCC 10231; assay: Antimicrobial activity; assay type: cell-based; conditions: 50 μg mL^−1; NA: not active
CA IX = conditions: read-out: CA IX IC50; as reported; cited from earlier work
P. aeruginosa = assay: Anti-biofilm activity; assay type: cell-based; conditions: 50 μg mL^−1

## NS(=O)(=O)c1ccc(NC2=NC(=O)/C(=C\c3ccccc3)S2)cc1 [Compound 4a, (E)-4-(5-Benzylidene-4-oxo-4,5-dihydrothiazol-2-ylamino)benzenesulfonamide]
MDA-MB-231 [1]
  IC50: 12.8 ± 0.5 µM
MCF-7
  IC50: 9.63 ± 0.4 µM
[2]
  IC50 at 48 h: 24.2 ± 0.9 µM

## NS(=O)(=O)c1ccc(NC2=NC(=O)/C(=C\c3ccc(C(=O)O)cc3)S2)cc1 [Compound 4f, (E)-4-((4-oxo-2-(4-Sulfamoylphenylamino)thiazol-5(4H)-ylidene)methyl)benzoic acid]
MDA-MB-231 [1]
  IC50: 17.2 ± 0.7 µM
MCF-7
  IC50: 36 ± 1.4 µM
[2]
  IC50 at 48 h: 30.3 ± 1.1 µM
Klebsiella pneumonia
  inhibition ratio% K. pneumonia: 26.80%
[3]
  inhibition ratio% E. coli: 46.45%
Proteus vulgaris
  inhibition of growth at 50 µg/mL: 3.39%
[4]
  inhibition ratio% S. aureus: 57.93%
Salmonella typhimurium
  inhibition ratio% S. typhimurium: 45.72%
K. pneumonia
  Biofilm inhibition ratio% K. pneumonia: 10.08%
E. coli [5]
  Biofilm inhibition ratio% E. coli: 19.89%
P. vulgaris
  Biofilm inhibition ratio% P. vulgaris: 64.67%
S. aureus
  Biofilm inhibition ratio% S. aureus: 21.43%
S. typhimurium
  Biofilm inhibition ratio% S. typhimurium: 36.57%

## C[C@@H](O)[C@H]1C(=O)N2C(C(=O)O)=C(SCCN=CN)C[C@H]12 [imipenem]
E. coli [6]
  zone inhibition (ZI) E. coli: 30 mm
S. flexenari
  zone inhibition (ZI) S. flexenari: 27 mm

## C=CCc1cc(/C=C2/SC(Nc3ccc(S(N)(=O)=O)cc3)=NC2=O)c(O)c(OC)c1 [Compound 4e, (E)-4-(5-(5-Allyl-2-hydroxy-3-methoxybenzylidene)-4-oxo-4,5-dihydrothiazol-2-ylamino)benzenesulfonamide]
MDA-MB-231 [1]
  IC50: 3.58 ± 0.1 µM
MCF-7
  IC50: 4.58 ± 1.8 µM
[2]
  IC50 at 48 h: 19.4 ± 0.7 µM
MCF 10A
  selectivity to breast cancer cell lines over MCF-10A: 5.5 times
Carbonic anhydrase IX; CA IX IC50 (nM)±S.D.
  IC50: 10.9 nM
Carbonic anhydrase IX; CA IX IC50 (μM)
  IC50: 11 nM
Carbonic anhydrase II
  IC50: 3.92 µM
MDA-MB-231 [7]
  level of compound taken up into MDA-MB-231 cell line: 12500 ng/mL
MDA-MB-231 [8]
  arrest in the S phase: 1.4 fold
  increase in the percentage of cells at pre-G1: 22 fold
MDA-MB-231 [9]; upper left quadrant
  necrosis phase: 16.65%
MDA-MB-231 [9]; upper right quadrant
  annexin V-FITC-positive cells, late apoptotic phase: 22.04%
Klebsiella pneumonia
  inhibition ratio% K. pneumonia: 62.89%
[3]
  inhibition ratio% E. coli: 60.66%
Proteus vulgaris
  inhibition of growth at 50 µg/mL: 42%
[4]
  inhibition ratio% S. aureus: 80.69%
Salmonella typhimurium
  inhibition ratio% S. typhimurium: 75.09%
K. pneumonia
  Biofilm inhibition ratio% K. pneumonia: 18.60%
E. coli [5]
  Biofilm inhibition ratio% E. coli: 15.47%
P. vulgaris
  Biofilm inhibition ratio% P. vulgaris: 61.41%
S. aureus
  Biofilm inhibition ratio% S. aureus: 45.92%
S. typhimurium
  Biofilm inhibition ratio% S. typhimurium: 63.43%

## C[C@@H]1[C@H](O)[C@@H](C)/C=C/C=C/CC/C=C/C=C/C=C/C=C/C(O[C@H]2O[C@H](C)[C@@H](O)[C@H](N)[C@@H]2O)CC2O[C@](O)(CC(O)C(O)CCC(O)CC(O)CC(O)CC(=O)O[C@H]1C)CC(O)C2C(=O)O (stereo partly shown) [Nys, nystatin, reference compound]
[10]
  inhibition ratio% C. albicans: 99.21%

## COc1cc(/C=C2/SC(Nc3ccc(S(N)(=O)=O)cc3)=NC2=O)ccc1O [Compound 4h, (E)-4-(5-(4-Hydroxy-3-methoxybenzylidene)-4-oxo-4,5-dihydrothiazol-2-ylamino)benzenesulfonamide]
MDA-MB-231 [1]
  IC50: 1.56 ± 0.1 µM
MCF-7
  IC50: 1.52 ± 0.1 µM
[2]
  IC50 at 48 h: 26.1 ± 1.1 µM
MCF 10A
  selectivity to breast cancer cell lines over MCF-10A: 17.5 times
Carbonic anhydrase IX; CA IX IC50 (nM)±S.D.
  IC50: 25.6 nM
Carbonic anhydrase IX; CA IX IC50 (μM)
  IC50: 26 nM
Carbonic anhydrase II
  IC50: 2.19 µM
MDA-MB-231 [7]
  level of compound taken up into MDA-MB-231 cell line: 17070 ng/mL
Klebsiella pneumonia
  inhibition ratio% K. pneumonia: 33.51%
[3]
  inhibition ratio% E. coli: 29.51%
Proteus vulgaris
  inhibition of growth at 50 µg/mL: 19.1%
[4]
  inhibition ratio% S. aureus: 68.30%
Salmonella typhimurium
  inhibition ratio% S. typhimurium: 59.11%
K. pneumonia
  Biofilm inhibition ratio% K. pneumonia: 77.52%
E. coli [5]
  Biofilm inhibition ratio% E. coli: 19.89%
P. vulgaris
  Biofilm inhibition ratio% P. vulgaris: 50.54%
S. aureus
  Biofilm inhibition ratio% S. aureus: 19.39%
S. typhimurium
  Biofilm inhibition ratio% S. typhimurium: 66.86%
P. aeruginosa
  Biofilm inhibition ratio% P. aeruginosa: 35.96%

## NS(=O)(=O)c1ccc(NC2=NC(=O)/C(=C\c3ccc(O)cc3)S2)cc1 [Compound 4b, (E)-4-(5-(4-Hydroxybenzylidene)-4-oxo-4,5-dihydrothiazol-2-ylamino)benzenesulfonamide]
MDA-MB-231 [1]
  IC50: 14.6 ± 0.6 µM
MCF-7
  IC50: 3.63 ± 0.1 µM
[2]
  IC50 at 48 h: 17.8 ± 0.6 µM
[10]
  inhibition ratio% C. albicans: 8.87%
K. pneumonia
  Biofilm inhibition ratio% K. pneumonia: 78.29%
E. coli [5]
  Biofilm inhibition ratio% E. coli: 18.78%
P. vulgaris
  Biofilm inhibition ratio% P. vulgaris: 16.85%
S. aureus
  Biofilm inhibition ratio% S. aureus: 53.06%
P. aeruginosa
  Biofilm inhibition ratio% P. aeruginosa: 45.51%

## CN(C)c1ccc(/C=C2/SC(Nc3ccc(S(N)(=O)=O)cc3)=NC2=O)cc1 [Compound 4j, (E)-4-(5-(4-(Dimethylamino)benzylidene)-4-oxo-4,5-dihydrothiazol-2-ylamino)benzenesulfonamide]
MDA-MB-231 [1]
  IC50: 10.1 ± 0.4 µM
MCF-7
  IC50: 26.6 ± 1 µM
[2]
  IC50 at 48 h: 13.1 ± 0.5 µM
Proteus vulgaris
  inhibition of growth at 50 µg/mL: 5.08%

## COc1cc(/C=C2/SC(Nc3ccc(S(N)(=O)=O)cc3)=NC2=O)cc(OC)c1OC [Compound 4i, (E)-4-(4-oxo-5-(3,4,5-Trimethoxybenzylidene)-4,5-dihydrothiazol-2-ylamino)benzenesulfonamide]
MDA-MB-231 [1]
  IC50: 16.3 ± 0.6 µM
MCF-7
  IC50: 4.05 ± 0.2 µM
[2]
  IC50 at 48 h: 14.2 ± 0.5 µM
K. pneumonia
  Biofilm inhibition ratio% K. pneumonia: 5.43%
E. coli [5]
  Biofilm inhibition ratio% E. coli: 49.72%
P. vulgaris
  Biofilm inhibition ratio% P. vulgaris: 7.61%
S. aureus
  Biofilm inhibition ratio% S. aureus: 22.55%
S. typhimurium
  Biofilm inhibition ratio% S. typhimurium: 22.86%

## O=C(O)c1cn(C2CC2)c2cc(N3CCNCC3)c(F)cc2c1=O [Cip, ciprofloxacin, reference compound]
Klebsiella pneumonia
  inhibition ratio% K. pneumonia: 99.7%
[3]
  inhibition ratio% E. coli: 99.1%
Proteus vulgaris
  inhibition of growth at 50 µg/mL: 99.8%
[4]
  inhibition ratio% S. aureus: 99.25%
[4]; listed as CIP
  inhibition ratio% S. aureus: 99.2%
Salmonella typhimurium
  inhibition ratio% S. typhimurium: 99.56%

## COc1ccc(/C=C2/SC(Nc3ccc(S(N)(=O)=O)cc3)=NC2=O)cc1 [Compound 4c, (E)-4-(5-(4-Methoxybenzylidene)-4-oxo-4,5-dihydrothiazol-2-ylamino)benzenesulfonamide]
MDA-MB-231 [1]
  IC50: 6.31 ± 0.2 µM
MCF-7
  IC50: 3.67 ± 0.1 µM
[2]
  IC50 at 48 h: 22.7 ± 0.8 µM

## NS(=O)(=O)c1ccc(NC2=NC(=O)/C(=C\c3ccc([N+](=O)[O-])cc3)S2)cc1 [Compound 4g, (E)-4-(5-(4-Nitrobenzylidene)-4-oxo-4,5-dihydrothiazol-2-ylamino)benzenesulfonamide]
MDA-MB-231 [1]
  IC50: 5.54 ± 0.2 µM
MCF-7
  IC50: 2.55 ± 0.1 µM
[2]
  IC50 at 48 h: 47.9 ± 1.7 µM
MCF 10A
  selectivity to breast cancer cell lines over MCF-10A: 8.5 times
Carbonic anhydrase IX; CA IX IC50 (nM)±S.D.
  IC50: 17 nM
Carbonic anhydrase IX; CA IX IC50 (μM)
  IC50: 17 nM
Carbonic anhydrase II
  IC50: 1.55 µM
Proteus vulgaris
  inhibition of growth at 50 µg/mL: 23.3%
[4]
  inhibition ratio% S. aureus: 69.74%
Salmonella typhimurium
  inhibition ratio% S. typhimurium: 60.97%
K. pneumonia
  Biofilm inhibition ratio% K. pneumonia: 79.46%
S. aureus
  Biofilm inhibition ratio% S. aureus: 35.24%

## NS(=O)(=O)c1ccc(NC2=NC(=O)/C(=C\c3ccc(Cl)cc3)S2)cc1 [Compound 4d, (E)-4-(5-(4-Chlorobenzylidene)-4-oxo-4,5-dihydrothiazol-2-ylamino)benzenesulfonamide]
MDA-MB-231 [1]
  IC50: 1.88 ± 0.1 µM
MCF-7
  IC50: 15.5 ± 0.6 µM
[2]
  IC50 at 48 h: 22.9 ± 0.8 µM
